Experimental findings from US20140058103A1, “Inhibitors of PI3K-Delta and Methods of Their Use and Manufacture” (Exelixis, Inc., priority 2010, published 2014) are described below.

Structures are written as SMILES. Bounds are passed on as bounds.

Sequence of PI3K delta (O00329 whole entry): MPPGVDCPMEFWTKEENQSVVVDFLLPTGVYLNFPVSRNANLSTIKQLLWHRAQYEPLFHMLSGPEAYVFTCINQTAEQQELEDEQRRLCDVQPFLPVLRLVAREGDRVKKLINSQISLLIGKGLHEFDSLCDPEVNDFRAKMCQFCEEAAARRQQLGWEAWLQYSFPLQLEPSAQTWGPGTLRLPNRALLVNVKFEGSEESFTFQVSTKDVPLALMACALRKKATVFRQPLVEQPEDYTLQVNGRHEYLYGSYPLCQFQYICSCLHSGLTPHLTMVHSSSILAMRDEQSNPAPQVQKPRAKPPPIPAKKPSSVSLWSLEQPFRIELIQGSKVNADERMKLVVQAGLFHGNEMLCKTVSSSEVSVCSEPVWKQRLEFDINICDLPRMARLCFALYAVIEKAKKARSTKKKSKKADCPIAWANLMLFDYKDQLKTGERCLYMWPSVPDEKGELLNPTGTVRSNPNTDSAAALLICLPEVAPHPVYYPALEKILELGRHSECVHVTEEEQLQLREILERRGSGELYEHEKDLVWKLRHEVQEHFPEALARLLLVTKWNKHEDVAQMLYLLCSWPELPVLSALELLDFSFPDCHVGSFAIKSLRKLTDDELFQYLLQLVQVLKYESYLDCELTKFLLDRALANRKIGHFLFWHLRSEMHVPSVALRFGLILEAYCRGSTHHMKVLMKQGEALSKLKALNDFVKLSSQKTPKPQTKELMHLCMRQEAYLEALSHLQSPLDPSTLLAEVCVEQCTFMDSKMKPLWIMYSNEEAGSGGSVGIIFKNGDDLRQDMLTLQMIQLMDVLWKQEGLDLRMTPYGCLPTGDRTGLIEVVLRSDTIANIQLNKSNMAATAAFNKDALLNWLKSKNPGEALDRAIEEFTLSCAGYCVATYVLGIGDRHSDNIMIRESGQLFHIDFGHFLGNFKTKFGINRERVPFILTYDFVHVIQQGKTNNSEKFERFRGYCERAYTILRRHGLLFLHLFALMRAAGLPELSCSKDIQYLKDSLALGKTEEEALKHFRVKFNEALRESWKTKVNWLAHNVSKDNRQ
Sequence of PI3K delta (P27986 whole entry partner): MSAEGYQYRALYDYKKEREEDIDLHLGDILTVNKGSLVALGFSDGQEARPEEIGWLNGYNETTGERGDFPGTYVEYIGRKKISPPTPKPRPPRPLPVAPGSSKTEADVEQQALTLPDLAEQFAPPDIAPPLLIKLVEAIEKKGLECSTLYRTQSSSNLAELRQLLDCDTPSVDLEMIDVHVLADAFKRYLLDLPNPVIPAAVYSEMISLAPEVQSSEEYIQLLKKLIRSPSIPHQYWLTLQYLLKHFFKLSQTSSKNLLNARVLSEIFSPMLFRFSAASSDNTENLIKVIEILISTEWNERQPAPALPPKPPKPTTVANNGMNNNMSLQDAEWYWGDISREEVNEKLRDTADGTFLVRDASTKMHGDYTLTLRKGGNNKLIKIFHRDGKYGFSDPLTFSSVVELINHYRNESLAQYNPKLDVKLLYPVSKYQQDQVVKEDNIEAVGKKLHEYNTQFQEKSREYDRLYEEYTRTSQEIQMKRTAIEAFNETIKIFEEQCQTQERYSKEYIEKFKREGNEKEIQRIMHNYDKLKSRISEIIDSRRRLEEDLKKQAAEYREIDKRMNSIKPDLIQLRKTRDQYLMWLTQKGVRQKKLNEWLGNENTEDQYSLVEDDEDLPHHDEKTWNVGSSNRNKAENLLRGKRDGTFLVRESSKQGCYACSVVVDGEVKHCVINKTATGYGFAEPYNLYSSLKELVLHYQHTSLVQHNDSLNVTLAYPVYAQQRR

This experiment has as its target PI3K delta (Homo sapiens, UniProt O00329). Put plainly: Luciferase-coupled chemiluminescence kinase assay (ATP consumption, KinaseGlo). Type of experiment: biochemical. The procedure, abridged:
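Compound, kinase and ATP (≤ KM) reacted 2 h at ambient temperature, then remaining ATP quantified with luciferase-luciferin (KinaseGlo) luminescence as percent consumed.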
(Kinase-Glo measures the ATP left after a reaction by luminescence.)
In general, IC50 refers to the midpoint of a concentration-inhibition curve. Low values mean greater potency in that assay, high ones weaker potency in that assay. For the compound `CC(C)CCNC(=O)c1nc2c(N3CCC4(CC3)C(=O)Nc3ccccc34)ncnc2n1C` [Compound 40, 9-methyl-N-(3-methylbutyl)-6-(2-oxo-1,2-dihydro-1′H-spiro[indole-3,4′-piperidin]-1′-yl)-9H-purine-8-carboxamide], the IC50 was 50 to 250 nM.

In turn, `Cn1cc(-c2nc3c(N4CCN(S(=O)(=O)c5ccc(F)cc5)CC4)ncnc3n2C)cn1` [Compound 372, 6-{4-[(4-fluorophenyl)sulfonyl]piperazin-1-yl}-9-methyl-8-(1-methyl-1H-pyrazol-4-yl)-9H-purine] displayed an IC50 of 500 to 1500 nM. In turn, `COc1ccc(CNC(=O)c2nc3c(N4CCC5(CC4)C(=O)Nc4ccccc45)ncnc3n2C)cc1` [Compound 29, 9-methyl-N-([4-(methyloxy)phenyl]methyl)-6-(2-oxo-1,2-dihydro-1′H-spiro[indole-3,4′-piperidin]-1′-yl)-9H-purine-8-carboxamide] displayed an IC50 of 500 to 1500 nM. Then `Cn1c(C(=O)N2CCC2)nc2c(N3CCC4(CC3)C(=O)Nc3ccccc34)ncnc21` [Compound 90, 1′-[8-(azetidin-1-ylcarbonyl)-9-methyl-9H-purin-6-yl]spiro[indole-3,4′-piperidin]-2(1H)-one], with 250 to 500 nM; and `CCn1c(C(=O)NCC(F)(F)F)nc2c(N3CCC(n4c(=O)[nH]c5ncccc54)CC3)ncnc21` [Compound 318, 9-ethyl-6-[4-(2-oxo-2,3-dihydro-1H-imidazo[4,5-b]pyridin-1-yl)piperidin-1-yl]-N-(2,2,2-trifluoroethyl)-9H-purine-8-carboxamide], with less than 50 nM; and `CCCc1nnc(-c2nc3c(N4CCC5(CC4)C(=O)Nc4ccccc45)ncnc3n2C)o1` [Compound 177, 1′-[9-methyl-8-(5-propyl-1,3,4-oxadiazol-2-yl)-9H-purin-6-yl]spiro[indole-3,4′-piperidin]-2(1H)-one], with less than 50 nM. As for `Cn1cc(-c2nc3c(N4CCN(c5ccc(OCc6ccc7ccccc7n6)cc5)CC4)ncnc3n2C)cn1` [Compound 361, 2-{[(4-(4-[9-methyl-8-(1-methyl-1H-pyrazol-4-yl)-9H-purin-6-yl]piperazin-1-yl}phenyl)oxy]methyl)-quinoline], the IC50 was in the range of 500 to 1500 nM.

`Cn1c(-c2cccnn2)nc2c(N3CCC(n4c(=O)[nH]c5ccccc54)CC3)ncnc21` [Compound 297, 1-[1-(9-methyl-8-pyridazin-3-yl-9H-purin-6-yl)piperidin-4-yl]-1,3-dihydro-2H-benzimidazol-2-one] came in with an IC50 of 50 to 250 nM. Compound `Cn1c(-n2cccc2)nc2c(N3CCC(n4c(=O)[nH]c5ccccc54)CC3)ncnc21` [Compound 127, 1-{1-[9-methyl-8-(1H-pyrrol-1-yl)-9H-purin-6-yl]piperidin-4-yl}-1,3-dihydro-2H-benzimidazol-2-one] had an IC50 of 500 to 1500 nM.

In turn, `CCn1cc(-c2nc3c(N4CCC(c5c[nH]c6ccccc56)CC4)ncnc3n2C)cn1` [Compound 366, 8-(1-ethyl-1H-pyrazol-4-yl)-6-[4-(1H-indol-3-yl)piperidin-1-yl]-9-methyl-9H-purine] gave an IC50 of 250 to 500 nM. As for `CCn1cc(-c2nc3c(N4CCC5(CC4)C(=O)Nc4ccccc45)ncnc3n2C)cn1` [Compound 237, 1′-[8-(1-Ethyl-1H-pyrazol-4-yl)-9-methyl-9H-purin-6-yl]spiro[indole-3,4′-piperidin]-2(1H)-one], the IC50 is less than 50 nM. `Cn1c(-c2cnn(CC3CCC3)c2)nc2c(N3CCC(n4c(=O)[nH]c5ccccc54)CC3)ncnc21` [Compound 231] displayed an IC50 of less than 50 nM. `Cn1cc(-c2nc3c(N4CCN(c5cccc(OCC(=O)N6CCCCC6)c5)CC4)ncnc3n2C)cn1` [Compound 357, 9-methyl-8-(1-methyl-1H-pyrazol-4-yl)-6-(4-{3-[(2-oxo-2-piperidin-1-ylethyl)oxy]phenyl}piperazin-1-yl)-9H-purine] came in with an IC50 of 500 to 1500 nM. In turn, `Cn1c(-c2cn[nH]c2C(F)(F)F)nc2c(N3CCC(n4c(=O)[nH]c5ccccc54)CC3)ncnc21` [Compound 262, 1-(1-{9-methyl-8-[5-(trifluoromethyl)-1H-pyrazol-4-yl]-9H-purin-6-yl}piperidin-4-yl)-1,3-dihydro-2H-benzimidazol-2-one] had an IC50 of 50 to 250 nM. In turn, `O=C(NCC1CC1)c1nc2c(N3CCC4(CC3)C(=O)Nc3ccccc34)ncnc2n1C1CC1` [Compound 175, 9-cyclopropyl-N-(cyclopropylmethyl)-6-(2-oxo-1,2-dihydro-1′H-spiro[indole-3,4′-piperidin]-1′-yl)-9H-purine-8-carboxamide] returned an IC50 of 50 to 250 nM. `CCOC(=O)c1nc2c(N3CCC(n4c(=O)[nH]c5ccccc54)CC3)ncnc2n1C` [Compound 80, Ethyl 9-methyl-6-[4-(2-oxo-2,3-dihydro-1H-benzimidazol-1-yl)piperidin-1-yl]-9H-purine-8-carboxylate] came in with an IC50 of 500 to 1500 nM. On to `COc1ccc(S(=O)(=O)N2CCN(c3ncnc4c3nc(-c3cnn(C)c3)n4C)CC2)cc1OC` [Compound 387, 6-(4-{[3,4-bis(methyloxy)phenyl]sulfonyl}-piperazin-1-yl)-9-methyl-8-(1-methyl-1H-pyrazol-4-yl)-9H-purine], for which the IC50 lay in the range of 500 to 1500 nM. As to `CNC(=O)c1nc2c(N3CCC(n4c(=O)[nH]c5ccccc54)CC3)ncnc2n1C` [Compound 91, N,9-dimethyl-6-[4-(2-oxo-2,3-dihydro-1H-benzimidazol-1-yl)piperidin-1-yl]-9H-purine-8-carboxamide], the IC50 fell in the range of 500 to 1500 nM. Then `Cn1c(C(=O)NC2CCc3ccccc32)nc2c(N3CCC4(CC3)C(=O)Nc3ccccc34)ncnc21` (stereo not drawn) [Compound 18, N-(2,3-dihydro-1H-inden-1-yl)-9-methyl-6-(2-oxo-1,2-dihydro-1′H-spiro[indole-3,4′-piperidin]-1′-yl)-9H-purine-8-carboxamide], with 250 to 500 nM; and `CC(=O)c1nc2c(N3CCC(n4c(=O)[nH]c5ccccc54)CC3)ncnc2n1C` [Compound 95, 1-[1-(8-Acetyl-9-methyl-9H-purin-6-yl)piperidin-4-yl]-1,3-dihydro-2H-benzimidazol-2-one], with 250 to 500 nM; and `CN(C)CCN1C(=O)C2(CCN(c3ncnc4c3nc(C(=O)NCC3CC3)n4C)CC2)c2ccccc21` [Compound 397, N-(cyclopropylmethyl)-6-{1-[2-(dimethylamino)ethyl]-2-oxo-1,2-dihydro-1′H-spiro[indole-3,4′-piperidin]-1′-yl}-9-methyl-9H-purine-8-carboxamide], with 500 to 1500 nM. Regarding `Cn1c(C(=O)N[C@H]2CC[C@H](O)CC2)nc2c(N3CCC(n4c(=O)[nH]c5ccccc54)CC3)ncnc21` [Compound 111, N-(trans-4-hydroxycyclohexyl)-9-methyl-6-[4-(2-oxo-2,3-dihydro-1H-benzimidazol-1-yl)piperidin-1-yl]-9H-purine-8-carboxamide], the IC50 is less than 50 nM. The compound `CCn1c(C(=O)NCC(C)C)nc2c(N3CCC(n4c(=O)[nH]c5ccccc54)CC3)ncnc21` [Compound 158, 9-ethyl-N-(2-methylpropyl)-6-[4-(2-oxo-2,3-dihydro-1H-benzimidazol-1-yl)piperidin-1-yl]-9H-purine-8-carboxamide] yielded an IC50 of less than 50 nM. With `CN(C)C1CN(C(=O)c2nc3c(N4CCC5(CC4)C(=O)NCC5c4ccccc4)ncnc3n2C)C1` (stereo not drawn) [Compound 10] the figure was 500 to 1500 nM.
